The subject of test [1] is RF strain of HIV (CEM-SS cells). The experiment in a line: Cell Culture Anti-HIV Activity (cell viability, formazan). It is filed as cell-based. As to conditions: Human immunodeficiency virus 1, CEM-SS, 144 h. In outline: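 Half-log compound dilutions added to CEM-SS cells (5000/well) carrying HIV RF (MOI 0.04), 6 days, 37° C. Cell protection measured as formazan from tetrazolium, A450. IC50: drug level restoring infected-cell formazan to 50% of the uninfected untreated control.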

The target in a further test is T1, HIV protease (Human immunodeficiency virus type 1 group M subtype B, UniProt P04585).
T1 construct: and purified protease
The experiment in a line: HIV Protease Assay. It is filed as biochemical. In a few lines: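 At a single final concentration of 10 μM (4% DMSO), inhibitors were added to a 30-minute, 37° C reaction of purified enzyme with 450 μM H2N-Val-Ser-Gln-Asn-(β-naphthyl-alanine)-Pro-Val-Ile-OH at pH 5.5 (sodium acetate, BSA). Hydrolysis was quantified by reverse-phase HPLC with 220 nm detection after acid quench.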

The mark [2] stands for this setting: CEM-SS cells, RF strain of HIV, multiplicity of infection 0.04, 6 days at 37° C., 450 nm, read-out: HIV (CEM Cells) IC50.
Setting [3] is: pH 5.5, 10 μM inhibitor, 4% DMSO, 450 μM substrate, pH 5.5, 30 minutes at 37° C., RP-HPLC, read-out: HIV Protease % Inhibition at 10 μM.

Structures are written as SMILES. Read-outs that look alike come from different tables or passages of the source.

A word on the IC50: it is the concentration that gives 50% inhibition. Broadly, the inhibition is the relative decrease from the control value, in per cent. For `CC(C)(C)NC(=S)N[C@@H](Cc1ccccc1)[C@H](O)CNC[C@@H](O)[C@H](Cc1ccccc1)NC(=O)OC(C)(C)C` [Compound 137, [1S-[1R*,2S*(2S*,3R*)]]-[3-[[3-[[[(1,1-Dimethylethyl)amino]thioxomethyl]amino]-2-hydroxy-4-phenylbutyl]amino]-2-hydroxy-1-(phenylmethyl))propyl]carbamic acid, 1,1-dimethylethyl ester], the IC50 in test [1] (setting [2]) is > 2.6 µM. Also, at HIV protease (setting [3]), the inhibition at 10 µM worked out at 92%.
Take `CCC(C)(C)OC(=O)N[C@@H](Cc1ccccc1)[C@H](O)CNC[C@@H](O)[C@H](Cc1ccccc1)NC(=O)OC(C)(C)CC` [Compound 138, [R-(R*,S*)]-[Iminobis[2-hydroxy-1-(phenylmethyl)-3,1-propandiyl]]biscarbamic acid, bis(1,1-dimethylpropyl)ester]: the IC50 in test [1] (setting [2]) is > 0.8 µM. The inhibition at 10 µM at HIV protease (setting [3]) amounted to 98%.
As for `CC(C)[C@H](NC(=O)OCc1ccccc1)C(=O)N[C@@H](Cc1ccccc1)[C@H](O)CNC[C@@H](O)[C@H](Cc1ccccc1)N(C)C(=O)OC(C)(C)C` [Compound 141, [S-[1R*,2S*(2S*,3R*)]-N-[3-[[3-[[(1,1-Dimethylethoxy)carbonyl]methylamino]-2-hydroxy-4-phenylbutyl]amino]-2-hydroxy-1-(phenylmethyl)propyl]-N^2-[(phenylmethoxy)-carbonyl]-L-valinamide]], the IC50 in test [1] (setting [2]) is > 2.3 µM. The inhibition at 10 µM at HIV protease (setting [3]) came out at 77%.
For the molecule `CC(C)(C)OC(=O)N[C@@H](Cc1ccccc1)[C@H](O)CNC[C@@H](O)[C@H](Cc1ccccc1)NC(=O)OC1CCc2ccccc21` (stereo partly drawn) [Compound 144, [1S-(1R*,2S*)]-[Iminobis[2-hydroxy-1-(phenylmethyl)-3,1-propanediyl)]-bis[carbamic acid], 1,1-dimethylethyl-2,3-dihydro-1H-inden-1-yl ester], the IC50 in test [1] (setting [2]) is 1 µM. Further, the inhibition at 10 µM at HIV protease (setting [3]) was 88%.
The like results for `CC(C)(C)OC(=O)N[C@@H](Cc1ccccc1)[C@H](O)CNC[C@@H](O)[C@H](Cc1ccccc1)NC(=O)O[C@@H]1CCc2ccccc21` [Compound 145, [1S-(1R*,2S*)]-[Iminobis[2-hydroxy-1-(phenylmethyl)-3,1-propanediyl)]biscarbamic acid, 1,1-dimethylethyl(R)-2,3-dihydro-1H-inden-1-yl ester] were, in that order, > 2.2 µM and 95%.
On to `CC(C)(C)OC(=O)N[C@@H](Cc1ccccc1)[C@H](O)CNC[C@@H](O)[C@H](Cc1ccccc1)NC(=O)O[C@H]1CCc2ccccc21` [Compound 146, [1S-(1R*,2S*)]-[Iminobis[2-hydroxy-1-(phenylmethyl)-3,1-propanediyl)]biscarbamic acid, 1,1-dimethylethyl(S)-2,3-dihydro-1H-inden-1-yl ester], for which the IC50 in test [1] (setting [2]) is ≥ 3 µM. In addition, on HIV protease (setting [3]), the inhibition at 10 µM amounted to 98%.
In the case of `CC(C)(C)OC(=O)N[C@@H](Cc1ccccc1)[C@H](O)CNC[C@@H](O)[C@H](Cc1ccccc1)NC(=O)OC1c2ccccc2CC1O` (stereo partly drawn) [Compound 148, [1S-(1R*, 2S*)]-[Iminobis[2-hydroxy-1-(phenylmethyl)-3,1-propanediyl)]biscarbamic acid, 1,1-dimethylethyl 2,3-dihydro-2-hydroxy-1H-inden-1-yl ester], in test [1] (setting [2]), the IC50 worked out at 2 µM. For the same molecule, on HIV protease (10 μM inhibitor, 4% DMSO, 450 μM substrate, pH 5.5, 30 minutes at 37° C., RP-HPLC), the “HIV Protease % Inhibition at 10 μM” value amounted to 88%.
Regarding `CC(C)(C)OC(=O)N[C@@H](Cc1ccccc1)[C@H](O)CNC[C@@H](O)[C@H](Cc1ccccc1)NC(=O)OC(C)(C)CCCNC(=O)OCc1ccccc1` [Compound 150, [1S-(1R*,2S*)]-[Iminobis[2-hydroxy-1-(phenylmethyl)-3,1-propanediyl)]biscarbamic acid, 1,1-dimethylethyl 1,1-dimethyl-4-[[(phenylmethoxy)carbonyl]amino]butyl ester], the IC50 in test [1] (setting [2]) was > 4 µM. Further, the inhibition at 10 µM on HIV protease (setting [3]) was determined as 93%.
The like results for `CC(C)(C)OC(=O)N[C@@H](Cc1ccccc1)[C@H](O)CNC[C@@H](O)[C@H](Cc1ccccc1)NC(=O)OC(C)(C)CCCNCc1ccccc1` [Compound 153, [1S-(1R*,2S*)]-[Iminobis[2-hydroxy-1-(phenylmethyl)-3,1-propanediyl]biscarbamic acid, 1,1-dimethylethyl 1,1-dimethyl-4-[(phenylmethyl)-amino]butyl ester] were, in that order, > 0.55 µM and 65%.
Turning to `CC(C)(C)OC(=O)N[C@@H](Cc1ccccc1)[C@H](O)CNC[C@@H](O)[C@H](Cc1ccccc1)NC(=O)OC(C)(C)Cc1ccccc1` [Compound 154, [R-(R*,S*)]-Iminobis[2-hydroxy-1-(phenylmethyl)-3,1-propanediyl)]biscarbamic acid, 1,1-dimethylethyl 1,1-dimethyl-2-phenylethyl ester], the IC50 in test [1] (setting [2]) was > 1.2 µM. Besides, the inhibition at 10 µM at HIV protease (setting [3]) was 96%.
As for `CC(C)(C)OC(=O)N[C@@H](Cc1ccccc1)[C@H](O)CNC[C@@H](O)[C@H](Cc1ccccc1)NC(=O)OC(C)(C)C#CCCc1ccccc1` [Compound 155, [1S-(1R*,2S*)]-[Iminobis[2-hydroxy-1-(phenylmethyl)-3,1-propanediyl]biscarbamic acid, 1,1-dimethylethyl 1,1-dimethyl-5-phenyl-2-pentynyl ester], the IC50 in test [1] (setting [2]) is > 0.2 µM. The inhibition at 10 µM at HIV protease (setting [3]) was determined as 95%.
The like results for `CC(C)(C)OC(=O)N[C@@H](Cc1ccccc1)[C@H](O)CNC[C@@H](O)[C@H](Cc1ccccc1)NC(=O)OC(C)(C)c1ccccc1` [Compound 156, [1S-(1R*,2S*)]-2-hydroxy-1-(phenylmethyl)-3,1-propanediyl)biscarbamic acid, 1,1-dimethylethyl-1-methyl-1-phenylethyl ester] were, in that order, > 6 µM and 85%.
Consider `CC(C)(C)OC(=O)N[C@@H](Cc1ccccc1)[C@H](O)CNC[C@@H](O)[C@H](Cc1ccccc1)NC(=O)OC(C)(C)CCOCc1ccccc1` [Compound 158, [1S-(1R*,2S*)]-[Iminobis[2-hydroxy-1-(phenylmethyl)-3,1-propanediyl]biscarbamic acid, 1,1-dimethylethyl 1,1-dimethyl-3-(phenylmethoxy)-propyl ester], for which the IC50 in test [1] (setting [2]) is > 1.8 µM. Further, the inhibition at 10 µM at HIV protease (setting [3]) stood at 97%.
Taken in the same sequence, the figures for `CC(C)(C)OC(=O)N[C@@H](Cc1ccccc1)[C@H](O)CNC[C@@H](O)[C@H](Cc1ccccc1)NC(=O)OC1(C)CCCC1` [Compound 159, [1S-(1R*,2S*)]-[Iminobis[2-hydroxy-1-(phenylmethyl)-3,1-propanediyl]]bis-[carbamic acid], 1,1-dimethylethyl 1-methyl-cyclopentyl ester] were 1.3 µM and 100%.
Take `CC(C)(C)OC(=O)N[C@@H](Cc1ccccc1)[C@H](O)CNC[C@@H](O)[C@H](Cc1ccccc1)NC(=O)OC1(C)CCC1` [Compound 160, [1S-(1R*,2S*)]-[Iminobis[2-hydroxy-1-(phenylmethyl)-3,1-propanediyl]]bis[carbamic acid], 1,1-dimethylethyl-1-methylcyclobutyl ester]: the IC50 in test [1] (setting [2]) was determined as 0.08 µM. Moreover, the inhibition at 10 µM at HIV protease (setting [3]) was determined as 99%.
Consider `CC(C)(C)OC(=O)N[C@@H](Cc1ccccc1)[C@H](O)CN(C[C@@H](O)[C@H](Cc1ccccc1)NC(=O)OC(C)(C)CO)C(=O)OCC[Si](C)(C)C` [Compound 164, [R-(R*,S*)]-[[[(Trimethylsilyl)-ethoxy]carbonyl]iminobis[2-hydroxy-1-(phenylmethyl)-3,1-propanediyl]1biscarbamic acid, 1,1-di-methylethyl 2-hydroxy-1,1-dimethylethyl ester], for which, in test [1] (read-out: HIV (CEM Cells) IC50 (μM)), the IC50 was found to be 0.04 µM. Besides, the inhibition at 10 µM on HIV protease (pH 5.5, read-out: HIV Protease % Inhibition at 10 μM, 10 μM inhibitor, 4% DMSO, 450 μM substrate, pH 5.5, 30 minutes at 37° C., RP-HPLC) was 99%.
As to `CC(C)(CO)OC(=O)N[C@@H](Cc1ccccc1)[C@H](O)CNC[C@@H](O)[C@H](Cc1ccccc1)NC(=O)OC(C)(C)CO` [Compound 165, [R-(R*,S*)]-[Iminobis[2-hydroxy-1-(phenylmethyl)-3,1-propanediyl)biscarbamic acid, bis(2-hydroxy-1,1-dimethylethyl) ester], the half-maximal inhibitory concentration (IC50) in test [1] (setting [2]) is 0.62 µM. Besides, the inhibition at 10 µM at HIV protease (setting [3]) was 100%.
`CC(C)(C)OC(=O)N[C@@H](Cc1ccccc1)[C@H](O)CNC[C@@H](O)[C@H](Cc1ccccc1)NC(=O)OC1(C)CCOCC1` [Compound 166, [1S-(1R*,2S*)]-[Iminobis[2-hydroxy-1-(phenylmethyl)-3,1-propanediyl]]bis[carbamic acid], 1,1-dimethylethyl-4-methyltetrahydropyran-4-yl-ester]: the IC50 in test [1] (setting [2]) was determined as 1.7 µM. Besides, the inhibition at 10 µM at HIV protease (setting [3]) was 89%.
In the case of `CC(C)(C)OC(=O)N[C@@H](Cc1ccccc1)[C@H](O)CNC[C@@H](O)[C@H](Cc1ccccc1)NC(=O)OC(C)(C)CC#CCc1ccccc1` [Compound 167, [1S-(1R*,2S*))]-[Iminobis[2-hydroxy-1-(phenylmethyl)-3,1-propanediyl]biscarbamic acid, 1,1-dimethylethyl 1,1]-dimethyl-5-phenyl-3-pentynyl ester], the IC50 in test [1] (setting [2]) is > 1.8 µM. The inhibition at 10 µM on HIV protease (setting [3]) amounted to 97%.

Source of the values: patent publication US5760036A, “Aminediol protease inhibitors” (E. R. Squibb & Sons, Inc., priority 1995, dated 1998).
